Laboratory results reported in patent publication US12059429B2, “Hornerin: a novel non-VEGF mediated angiogenic protein expressed in both human and mouse angiogenic endothelial cells and human pancreatic cancer cells” (University of Virginia Patent Foundation, priority 2018, dated 2024).

Columns and labels:
hornerin [1] = biological target: T1, hornerin (Homo sapiens, UniProt Q86YZ3); experiment: Phage display-based functional proteomics (pulldown, MS/MS, anti-hornerin immunoblot); format: binding; settings: tandem mass spectroscopy of pulldown lysates, confirmed by immunoblot
T1 construct: A unique band in the PTEM 9 lane that was not present in the control sample corresponded to the predicted molecular weight of hornerin; endogenous in cells
T1 sequence (Q86YZ3 whole entry): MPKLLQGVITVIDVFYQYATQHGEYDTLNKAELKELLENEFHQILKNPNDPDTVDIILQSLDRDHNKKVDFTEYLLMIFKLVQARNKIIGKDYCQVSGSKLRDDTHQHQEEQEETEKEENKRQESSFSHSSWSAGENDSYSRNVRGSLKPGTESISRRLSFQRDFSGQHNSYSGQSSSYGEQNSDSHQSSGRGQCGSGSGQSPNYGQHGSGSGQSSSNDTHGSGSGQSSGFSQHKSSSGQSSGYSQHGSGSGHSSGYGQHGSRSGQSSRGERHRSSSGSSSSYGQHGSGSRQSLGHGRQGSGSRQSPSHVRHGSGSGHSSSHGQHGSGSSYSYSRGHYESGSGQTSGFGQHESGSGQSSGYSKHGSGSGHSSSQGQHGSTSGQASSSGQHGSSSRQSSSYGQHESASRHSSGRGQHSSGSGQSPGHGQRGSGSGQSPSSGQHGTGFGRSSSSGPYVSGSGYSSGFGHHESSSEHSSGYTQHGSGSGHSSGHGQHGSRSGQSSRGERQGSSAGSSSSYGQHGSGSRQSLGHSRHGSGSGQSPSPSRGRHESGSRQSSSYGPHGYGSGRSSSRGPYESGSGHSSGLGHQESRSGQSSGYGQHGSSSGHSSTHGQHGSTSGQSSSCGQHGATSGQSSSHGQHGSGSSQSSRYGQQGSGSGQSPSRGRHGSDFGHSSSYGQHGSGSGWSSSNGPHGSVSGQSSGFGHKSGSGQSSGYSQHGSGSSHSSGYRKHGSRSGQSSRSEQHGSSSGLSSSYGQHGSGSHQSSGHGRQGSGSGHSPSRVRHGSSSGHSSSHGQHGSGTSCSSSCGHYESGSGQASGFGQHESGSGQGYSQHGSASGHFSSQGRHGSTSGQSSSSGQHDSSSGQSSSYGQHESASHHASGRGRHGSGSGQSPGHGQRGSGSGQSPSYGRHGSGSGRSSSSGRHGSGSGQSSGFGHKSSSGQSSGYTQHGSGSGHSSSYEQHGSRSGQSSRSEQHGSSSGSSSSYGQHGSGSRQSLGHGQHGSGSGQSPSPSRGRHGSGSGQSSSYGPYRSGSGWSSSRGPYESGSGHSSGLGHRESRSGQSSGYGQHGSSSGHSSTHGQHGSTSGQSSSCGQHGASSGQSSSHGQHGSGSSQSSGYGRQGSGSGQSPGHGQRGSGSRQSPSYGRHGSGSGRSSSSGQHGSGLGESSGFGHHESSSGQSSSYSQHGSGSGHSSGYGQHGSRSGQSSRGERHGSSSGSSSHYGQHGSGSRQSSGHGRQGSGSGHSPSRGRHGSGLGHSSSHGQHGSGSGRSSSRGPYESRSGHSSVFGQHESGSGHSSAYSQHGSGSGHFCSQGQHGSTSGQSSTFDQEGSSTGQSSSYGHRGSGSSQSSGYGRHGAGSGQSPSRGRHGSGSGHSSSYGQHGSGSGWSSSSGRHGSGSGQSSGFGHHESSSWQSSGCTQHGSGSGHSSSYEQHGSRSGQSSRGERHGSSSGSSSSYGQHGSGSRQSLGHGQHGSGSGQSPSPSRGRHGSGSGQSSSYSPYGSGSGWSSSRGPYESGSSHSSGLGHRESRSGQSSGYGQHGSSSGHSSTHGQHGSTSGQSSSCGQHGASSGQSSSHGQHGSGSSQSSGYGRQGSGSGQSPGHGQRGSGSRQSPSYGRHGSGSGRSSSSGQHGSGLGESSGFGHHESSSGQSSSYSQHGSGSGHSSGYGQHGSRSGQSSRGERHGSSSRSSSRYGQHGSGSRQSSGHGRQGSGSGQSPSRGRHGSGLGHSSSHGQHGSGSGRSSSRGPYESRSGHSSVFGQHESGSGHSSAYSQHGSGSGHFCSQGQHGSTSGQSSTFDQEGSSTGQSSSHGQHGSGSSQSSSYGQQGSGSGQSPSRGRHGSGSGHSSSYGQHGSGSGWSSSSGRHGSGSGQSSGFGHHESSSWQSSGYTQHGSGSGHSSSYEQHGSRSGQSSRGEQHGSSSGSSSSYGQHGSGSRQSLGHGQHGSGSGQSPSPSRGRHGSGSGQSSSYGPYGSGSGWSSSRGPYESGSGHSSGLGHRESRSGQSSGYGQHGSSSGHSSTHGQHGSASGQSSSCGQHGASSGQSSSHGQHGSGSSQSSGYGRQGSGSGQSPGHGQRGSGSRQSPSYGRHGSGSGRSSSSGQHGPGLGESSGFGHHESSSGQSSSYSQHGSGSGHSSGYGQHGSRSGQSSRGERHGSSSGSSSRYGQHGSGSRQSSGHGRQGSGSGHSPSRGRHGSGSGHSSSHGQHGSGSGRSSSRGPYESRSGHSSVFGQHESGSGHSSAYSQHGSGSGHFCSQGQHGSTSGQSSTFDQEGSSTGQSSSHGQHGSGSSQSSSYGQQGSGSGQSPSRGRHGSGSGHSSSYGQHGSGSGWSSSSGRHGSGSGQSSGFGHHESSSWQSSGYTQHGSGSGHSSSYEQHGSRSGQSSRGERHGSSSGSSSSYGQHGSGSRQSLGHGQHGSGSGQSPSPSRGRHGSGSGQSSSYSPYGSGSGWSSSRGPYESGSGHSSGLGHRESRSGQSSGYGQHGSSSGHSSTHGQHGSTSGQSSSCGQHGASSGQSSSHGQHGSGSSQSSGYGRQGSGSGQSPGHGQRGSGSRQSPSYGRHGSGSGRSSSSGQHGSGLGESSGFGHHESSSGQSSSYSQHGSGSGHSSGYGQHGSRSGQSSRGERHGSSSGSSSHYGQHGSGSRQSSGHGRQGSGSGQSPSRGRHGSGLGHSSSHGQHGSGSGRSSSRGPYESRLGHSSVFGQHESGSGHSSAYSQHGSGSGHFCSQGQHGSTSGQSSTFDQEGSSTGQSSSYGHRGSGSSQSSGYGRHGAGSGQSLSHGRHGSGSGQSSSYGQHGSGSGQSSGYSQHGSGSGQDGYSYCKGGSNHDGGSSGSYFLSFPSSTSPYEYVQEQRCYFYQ
Method: The gel piece was transferred to a siliconized tube and washed and destained in 200 μL 50% methanol overnight. The gel pieces were dehydrated in acetonitrile, rehydrated in 30 μL of 10 mM dithiolthreitol in 0.1M ammonium bicarbonate, and reduced at room temperature for 0.5 hours. The DTT solution was removed and the sample alkylated in 30 μL 50 mM iodoacetamide in 0.1M ammonium bicarbonate at room temperature for 0.5 hours. The reagent was removed and the gel pieces dehydrated in 100 μL acetonitrile. The acetonitrile was removed and the gel pieces rehydrated in 100 μL 0.1M ammonium bicarbonate. The pieces were dehydrated in 100 μL acetonitrile, the acetonitrile removed and the pieces completely dried by vacuum centrifugation. […]
The LC-MS system consisted of a Thermo Electron Velos Orbitrap ETD mass spectrometer system with a Protana nanospray ion source interfaced to a self-packed 8 cm×75 μm id Phenomenex Jupiter 10 μm C18 reversed-phase capillary column. […] The digest was analyzed using the double play capability of the instrument acquiring full scan mass spectra (Orbitrap, 60 K resolution) to determine peptide molecular weights followed by product ion spectra (ion trap) to determine amino-acid sequence in sequential scans. […]
The data were analyzed by database searching using the Sequest search algorithm within Proteome Discoverer (v1.2) against IPI Human (v3.78, 86,702 entries). […]

TCM-treated HUVECs = experiment: Phage-based ELISA on treated HUVECs with two-way ANOVA; format: binding, human
Method: HUVEC were plated in MaxiSorp 96-well plates (NUNC, Rochester, NY, USA) and cultured for 24 hours, at which time the cells were treated with media containing VEGF (VEGFCM) at B-max concentration (Igarashi et al., 2003) or TCM for an additional 24 h. ELISA was initiated by adding 1010 isolated phage to each well for a 1 hour incubation. After three washes with DPBS+0.1% Tween-20 (DPBST), the cells were incubated with horse radish peroxidase (HRP)-tagged anti-M13 antibody (GE Healthcare, Little Chalfont, UK, 27-9421-01; (1:3000)) for 30 min. The plates were washed three additional times (DBPST) then developed with 200 μL 3,3′,5,5′-Tetramethylbenzidine (Sigma) for 10 minutes. The A650 was measured on a microplate reader (Molecular Devices, Sunnyvale, CA, USA).
Absorbance values were corrected by comparison to unmodified control KE phage. […]
As VEGF is highly abundant in the pancreatic tumor milieu, clones were further segregated based on their ability to bind to VEGF-treated HUVECs vs. tumor conditioned media (TCM)-treated HUVECs. […] Enzyme-linked immunoabsorbent assay (ELISA) results were analyzed by two-way analysis of variance (ANOVA) to find clones that consistently bound to HUVECs treated with TCM, but not vehicle control (VC) or VEGF-supplemented control media (VEGFCM; FIGS. 2A and 2B). […]

hornerin [2] = experiment: Immunoblot of hornerin in HUVECs treated with growth factors; format: cell-based, human; settings: 24 hours treatment; growth factors at published B-max concentrations, EGF at increasing concentrations
Method: HUVECs were cultured in 10 cm dishes for 24 hours prior to a change to media containing VEGF (at B-max concentration), TCM, or VC. After 24 hours treatment, the cells were washed with DPBST two times and lysed with radioimmunoprecipitation assay (RIPA) buffer (Thermo Scientific). Lysate protein concentrations were measured by the bicinchoninic acid assay (Pierce, Waltham, MA, USA) and equivalent amounts of protein were loaded into precast 4-15% tris-glycine eXtended (TGX) polyacrylamide gels (Bio-Rad, Hercules, CA, USA). The proteins were resolved by electrophoresis and transferred to nitrocellulose membranes using the iBlot system (Invitrogen, Carlsbad, CA, USA). The membranes were then washed in Tris-buffered saline+1% Tween-20 (TBST), blocked for 30 minutes in TBST+2% milk solution, and incubated overnight at 4° C. with primary antibodies anti-hornerin (Abcam, Cambridge, UK, ab78909; (1:1000)) and anti-HSP90 (Cell Signaling Technology, Danvers, MA, USA, 4877; (1:1000)). The following day the membranes were washed and subsequently incubated with the secondary antibodies anti-goat HRP (R&D Systems, Minneapolis, MN, USA, HAF109; 1:5000) and anti-rabbit HRP (GE Healthcare, NA934V; 1:5000) for 45 minutes at RT. […]
Major constituents of TCM were determined using a Human Angiogenesis Antibody Array (Affymetrix, Santa Clara, CA, USA) per manufacturer's instructions. […]

hornerin [3] = experiment: Immunoblot of hornerin in human keratinocytes treated with EGF; format: cell-based; settings: 48 hours
hornerin [4] = experiment: Immunoblot of hornerin in L3.6pl cells treated with EGF; format: cell-based, human; settings: EGF 1, 10 or 100 ng/mL, 48 hours

“SLLNRMP (listed as Homo sapiens) [PTEM 9]” was tested. Which binding partner identified (hornerin [1]) did it give?
Its binding partner identified is “hornerin as the candidate protein”.

What about the “specificity (fold over vehicle control) among clones binding selectively to TCM-treated HUVECs” value (TCM-treated HUVECs) of the same substance?
The value was “highest average specificity”.

With EGF: recombinant human EGF (PeproTech) as the substance, how does the “hornerin expression in HUVECs” value (hornerin [2]) read?
Its value is “increased”.

What about the “hornerin expression in keratinocytes” value (hornerin [3]) of the same substance?
Its value is “more modest response”.

And the “hornerin expression in L3.6pl cells” value (hornerin [4])?
The value was “concentration-dependent increase in expression”.
